Reference: PMC5342555, “ATAD2 is an epigenetic reader of newly synthesized histone marks during DNA replication” (Oncotarget, 2016)
Entries after “also recorded” stand apart in the source; their conditions may differ.

How the values were obtained:
[1] = tested on: MCF7 cells; assay: Cell growth, viable cells by AlamarBlue; assay type: cell-based; conditions: MCF7, 4 days after transfection, mean ± SD, n = 3
[2] = tested on: HEK293 cells; assay: Isolation of proteins on nascent DNA (iPOND) after cycloheximide; assay type: cell-based
Description: iPOND was performed as previously described. Briefly, exponentially growing 1 x 10^8 of HEK 293 cells were incubated with 10 μM EdU (5-ethynyl-2'-deoxyuridine) and fixed in 1 % formaldehyde for 20 min at RT after 20 min (nascent chromatin) or chased for 2 h in fresh medium before fixation (mature chromatin). Crosslinking was stopped by addition of 0.125 M glycine and cells were permeabilized in 0.25 % Triton-X-100 for 30 min at RT followed by Click reaction to couple biotin to EdU. Cells were incubated in Click reaction buffer (0.01 mM biotin azide, 10 mM sodium ascorbate, 2 mM CuSO4 in PBS) for 1-2 h at RT with constant mixing. Cells were lysed in lysis buffer (1 % SDS in 50 mM Tris pH 8.0) and chromatin was solubilized by sonication in BIORUPTOR (Diagenode) for 4 min with medium frequency and 0.5 intervals at 4 °C. Biotinylated chromatin fragments were purified on streptavidine-dynabeads (ThermoFisher) by overnight end-over-end rotation at 4 °C. After stringent washing including once with 1 M NaCl the bound chromatin was released and crosslinking was reversed by boiling the beads in 2X LDS buffer for 40 min at 100 °C. Samples were dissolved in NuPAGE Bis-Tris gel and Western blot was performed.

[3] = tested on: endogenous ATAD2; assay: Peptide pull down from MCF7 nuclear extract; assay type: binding; conditions: immobilized histone peptides, nuclear extract from MCF7 cells
Description: H4 peptides (1-25) conjugated with Biotin was immobilized on Streptavidin-coupled Dynabeads for 2 hours at 4 °C and incubated with nuclear extract from MCF7 cells. Nuclear extract was prepared by first isolating nucleus in hypotonic buffer (10 mM Tris-HCl pH 8.5, 10 mM NaCl, 0.5 mM TCEP and 0.1 % NP-40) and disrupting nuclear envelop in high salt buffer (20 mM Tris-HCl pH 8.5, 420 mM NaCl, 0.5 mM TCEP, 0.1 % Triton X-100, 25 % Glycerol) for 2 hours at 4 °C. Soluble nuclear extract was harvested by centrifugation at 20000 g for 20 min and diluted to 1:3 in buffer without NaCl in order to achieve physiological salt concentration, 140 mM. The nuclear extract was incubated with the immobilized peptides on the Streptavidin-Dynabeads overnight at 4 °C. Next day, the beads were washed three times with washing buffer (20 mM Tris-HCl pH 8.5, 140 mM NaCl, 0.5 mM TCEP, 0.1 % Triton X-100, 25 % Glycerol) and twice with high salt buffer. Bound proteins were recovered by boiling the beads in 1X sample buffer for 5 min. at 95 °C and analyzed by SDS-PAGE and Western Blotting. For direct binding experiments 1 μM of immobilized histone peptides on Streptavidin-Dynabeads were incubated with indicated amounts of ligands for 2 hours at 4 °C. After stringent washing as described above, bound proteins were analyzed in Western Blotting.

[4] = tested on: GST-ATAD2-BD WT; assay: TR-FRET binding of biotinylated peptides to WT bromodomain; set-up: species or system human; conditions: for interaction with WT BD (TR-FRET, Figure 5C): 10 nM GST-ATAD2-BD WT, peptides at 100 nM and 1 μM
Description: (§1) TR-FRET measurements of GST-ATAD2 BD^981-1108 binding to the biotinylated synthetic peptides (Anaspec and Biosyntan) described in Supplementary Table S1 (SI Materials and Methods) were basically carried out as described recently for BRD4. For binding and competition experiments the concentration of GST-ATAD2 was 10 nM. Biotinylated peptides were tested in binding experiments at 100 nM and 1 μM, whereas the biotinylated H4K12ac tracer ([…]-K(Ac)-[…]-Biotin) was used at 50 nM in competition assays. […] All assays were performed in 50 mM HEPES pH 7.5, 100 mM NaCl, 50 mM KF, 0.25 mM CHAPS, 0.05 % BSA and 1 mM DTT and protein-peptide equilibrium complexes were detected with 10 nM of Anti-GST-XL665 MAb conjugate (Cisbio) and 2.5 nM of SA-Eu3+ Chelate (Perkin Elmer) as TR-FRET acceptor and donor molecules respectively. Raw fluorescence signals were acquired with a Pherastar FS microtiter plate reader (BMG) with 337 nm (excitation), 622 nm (donor emission) and 665 nm (acceptor emission). HTRF® ratio values were calculated as defined in the instrument software and normalized with low and high controls whenever appropriate. Competition experiments were analyzed with a four parameter logistic equation as defined in the GraphPad analysis software (http://www.graphpad.com/guides/prism/6/curve-fitting).

[5] = tested on: GST-ATAD2-BD Mut; assay: TR-FRET binding of biotinylated peptides to mutant bromodomain; set-up: species or system human; conditions: 10 nM GST-ATAD2-BD Mut
Description: as §1

Compound	interaction with WT BD (TR-FRET, Figure 5C) [4]	interaction with mutant BD (TR-FRET, Figure 5C) [5]	further results
5’-AGAUCACCCUCCUUAAAUAUU-3’ [PLK1]	–	–	viable cells, fluorescence intensity normalized to control siRNA treated cells [1]: 38.5%
C[C@@H]1C[C@@H]([C@H](O)CC2CC(=O)NC(=O)C2)C(=O)[C@@H](C)C1 [cycloheximide]	–	–	recruitment of ATAD2 to nascent chromatin ([2]; HEK293, 250 μg/ml CHX […] before 10 μM EdU 20 min 37 °C, iPOND): abrogated; newly synthesized histone H4 acetylated at K12 on nascent chromatin ([2]; HEK293, CHX […], iPOND): lost; total level of ATAD2 ([2]; HEK293, CHX, Western blotting before crosslinking): unaffected
H4 (1-25): biotinylated unmodified histone H4 peptide, AnaSpec Cat. No. 65242-1	–	–	interaction with endogenous ATAD2 (pull down, Western blotting) [3]: not
H4K5,12diac (1-25): biotinylated histone H4 peptide di-acetylated at K5 and K12	interact	not with mutant BD	interaction with endogenous ATAD2 (pull down, Western blotting) [3]: interacts
H4K5/8/12/16ac (1-25): biotinylated histone H4 peptide acetylated at K5,8,12,16, AnaSpec Cat. No. 65248-1	interact	not with mutant BD	–
H4K5ac (1-25): biotinylated histone H4 peptide acetylated at K5, AnaSpec Cat. No. 65229-1	strong binding; also recorded: interact	not with mutant BD	–
H4K12ac (1-25): biotinylated histone H4 peptide acetylated at K12, AnaSpec Cat. No. 65208-1	strong binding; also recorded: interact	not with mutant BD	interaction with BD of ATAD2 (TR-FRET, Figure 5B) ([4]; 1 μM biotin-labelled peptide, 10 nM GST-ATAD2 BD, GST as control): strong interaction
